Reference: US20090047742A1 (priority 2005, published 2009)

Columns and labels:
[1] = tested on: activated caspase-3 in iBMK cells; test: immunofluorescence of activated caspase-3 in iBMK cells; assay type: cell-based, mouse
Experimental: W2, D3, X2 and K1 cells co-transfected by electroporation with a combination of plasmids pcDNA6/His/lacZ with pcDNA4/TO/mazF or pcDNA3 were grown on glass coverslips for 24 hr and fixed in 100% methanol for 10 min at −20° C. After blocking in 1% BSA-PBS for 1 hr at 37° C., cells on coverslips were incubated with anti-active caspase-3 rabbit polyclonal antibody and anti-Xpress mouse monoclonal antibody (Invitrogen, Carlsbad, Calif.) for 1 hr at 37° C. followed by incubation with rhodamine-conjugated anti-rabbit IgG and FITC-conjugated anti-mouse IgG antibody for 1 hr at 37° C. Staining was visualized by a Nikon FXA microscope equipped with epifluorescence optics (Nikon Inc., Garden City, N.Y.). The percentage of cells positive for active caspase-3 was determined by scoring 50-100 cells on each coverslip.

caspase-3, PARP = test: Western blot of active caspase-3 and PARP in T-Rex-293 lysates; assay type: cell-based, human
Experimental: Western blot analysis and immunofluorescence were performed as previously described (Perez, D., and White, E. J. Cell Biol. 141: 1255-1266 (1998); Perez, D., and White, E. Mol. Cell 6: 53-63 (2000)). The term “Western blot” refers to a method for identifying proteins in a complex mixture; proteins are separated electrophoretically in a gel medium; transferred from the gel to a protein binding sheet or membrane; and the sheet or membrane containing the separated proteins exposed to specific antibodies which bind to, locate, and enable visualization of protein(s) of interest. T-Rex-293 (mazF/pcDNA3) and T-Rex-293 (mazF/mazE) cells were harvested at 0, 24, 48 and 72 hr post-treatment with tetracycline or staurosporine by scraping and centrifugation. All cell pellets were lysed in 2× Laemmli buffer. Cell lysates were subjected to electrophoresis on a 15% SDS-PAGE gel and then transferred onto an Immobilon-P membrane (Millipore, Bedford, Mass.). The blot was incubated with following antibody: anti-active caspase-3 rabbit polyclonal antibody (Cell Signaling Technology, Beverly, Mass.), anti-BAX, anti-BAK rabbit polyclonal antibody (NT) (Upstate Biotechnology Inc., Lake Placid, N.Y.), anti-BID goat polyclonal antibody (R&D Systems, Inc, Minneapolis, Minn.), anti-Bim rabbit polyclonal antibody (Alexis Biochemical, San Diego, Calif.), anti-BCL-2 hamster monoclonal antibody (PharMingen, San Diego, Calif.), anti-BCL-XL mouse monoclonal antibody (Trevigen, Gaithersburg, Md.), anti-MCL-1 rabbit polyclonal antibody (Stressgen Biotechnologies, Victoria, British Columbia, Canada), anti-PARP mouse monoclonal antibody (PharMingen, San Diego, Calif.), anti-PUMA rabbit polyclonal antibody (Nelson, D. A., et al., Genes Dev. 18: 2095-2107 (2004)), anti-E1A monoclonal antibody; anti-actin monoclonal antibody (Oncogene Research Products); and anti-Xpress monoclonal antibody (Invitrogen). An antibody directed to human NBK/BIK was generated by expression of a GST-tagged human NBK/BIK fusion protein encoding an N-terminal 78-amino acid region in bacteria and immunization of rabbits (Cocalico). Western Blots were developed with horseradish peroxidase-conjugated secondary antibodies using the ECL system (Amersham-Pharmacia Biotech, Piscataway, N.J.).

T-Rex-293 cells = test: phase contrast morphology / cytopathic effect; assay type: cell-based, human; settings: T-Rex-293, 72 hours post-induction of MazF
[2] = tested on: human GAPDH and β-actin mRNA; test: Northern blot analysis of cellular mRNA in T-Rex-293 cells; assay type: cell-based; settings: T-Rex-293 (mazF/pcDNA3) cells
Experimental: Northern blot analysis and real-time PCR (RT-PCR) was preformed as previously described (Zhang, Y., et al., Mol. Cell 12: 913-923 (2003); Cuconati, A., et al., Genes Dev. 17: 2922-2932 (2003)). Total RNA from tetracycline-treated (0, 24, 48 and 72 hr) or untreated (0, 24, 48 and 72 hr) T-Rex-293 (mazF/pcDNA3) and T-Rex-293 (mazF/mazE) cells for were isolated through the use of Trizol Reagent (Gibco, Carlsbad, Calif.). For Northern blot analysis, 10 μg of total RNA from each condition was subjected to formaldehyde-agarose gel electrophoresis followed by transfer onto GeneScreen Plus membrane (NEN Life Science Products, Boston, Mass.). The blot was hybridized with ^32P-labeled human GAPDH or β-actin cDNA. One hundred ng of total RNA was subjected to real time RT-PCR with the Taqman EZ-RT PCR kit (PE Applied Biosystems, Lincoln Centre Drive Foster City, Calif.) using recommended conditions provided by the vendor. Primers to analyze the level of human GAPDH mRNA were obtained from Applied Biosystems, and a probe for GAPDH was supplied with 5′ linkage to the reporter dye 2, 7-dimethoxy-4, 5-dichloro-6-carboxy-fluoroecein (JOE), and 3′ linkage to the quencher 6-carboxy-tetramethylrhodamine (TAMURA). β-actin primer sequences were 5′-[…]-3′ and 5′-[…]-3′. β-actin probe sequence was FAM-5′-[…] TTCC-3′-TAMURA. Reactions were carried out in triplicate and the relative amount of human GAPDH and β-actin mRNA was calculated from the difference in fluorescence signal in the 24-, 48- and 72-hr samples compared with the corresponding 0 hr sample.
To assess cellular mRNA levels, total RNA was isolated from whole cells of Tet-treated or -untreated T-Rex-293 cells and subjected to Northern blot analysis using human GAPDH and β-actin cDNA probes. […] Labeled single-stranded DNA fragments complementary to the specific mRNA being sought then are hybridized to the bound mRNA and the label detected by suitable means. […]

[3] = tested on: human GAPDH and β-actin mRNA; test: real-time RT-PCR quantification of mRNA levels in T-Rex-293 cells; assay type: cell-based; settings: MazF induction for 72 hours, T-Rex-293 cells
Experimental: Northern blot analysis and real-time PCR (RT-PCR) was preformed as previously described (Zhang, Y., et al., Mol. Cell 12: 913-923 (2003); Cuconati, A., et al., Genes Dev. 17: 2922-2932 (2003)). Total RNA from tetracycline-treated (0, 24, 48 and 72 hr) or untreated (0, 24, 48 and 72 hr) T-Rex-293 (mazF/pcDNA3) and T-Rex-293 (mazF/mazE) cells for were isolated through the use of Trizol Reagent (Gibco, Carlsbad, Calif.). For Northern blot analysis, 10 μg of total RNA from each condition was subjected to formaldehyde-agarose gel electrophoresis followed by transfer onto GeneScreen Plus membrane (NEN Life Science Products, Boston, Mass.). The blot was hybridized with ^32P-labeled human GAPDH or β-actin cDNA. One hundred ng of total RNA was subjected to real time RT-PCR with the Taqman EZ-RT PCR kit (PE Applied Biosystems, Lincoln Centre Drive Foster City, Calif.) using recommended conditions provided by the vendor. […] Reactions were carried out in triplicate and the relative amount of human GAPDH and β-actin mRNA was calculated from the difference in fluorescence signal in the 24-, 48- and 72-hr samples compared with the corresponding 0 hr sample.

## MazF: E. coli toxin; sequence specific endoribonuclease (mRNA interferase) cleaving single-stranded RNAs at ACA sequences; expressed from plasmid pcDNA4/TO/mazF
[1]; D3 and K1 cells transiently expressing MazF
  cells with activated caspase-3: < 0.1%
[1]; W2 cells transiently expressing MazF
  active-caspase-3 positive cells: 58.1%
[1]; X2 cells transiently expressing MazF
  active-caspase-3 positive cells: 47.2%
caspase-3, PARP; T-Rex-293 (mazF/pcDNA3) treated with Tet for 48 hours
  cleaved PARP (Western blot): detected
caspase-3, PARP; T-Rex-293 (mazF/pcDNA3), 72 hours post-induction of MazF
  cleaved PARP levels (Western blot): further increased
caspase-3, PARP; extracts from T-Rex-293 (mazF/pcDNA3) cells treated with Tet
  processed active caspase-3 (Western blot): presence of the processed active form of caspase-3
T-Rex-293 cells
  number of attached cells: dramatically decreased
[2]; 48 hours post-induction of MazF
  levels of both GAPDH and β-actin mRNAs (Northern blot): almost completely lost
[2]; after 24 hours of MazF induction by Tet
  levels of both GAPDH and β-actin mRNAs (Northern blot): dramatically decreased
[3]
  decrease of both GAPDH and β-actin mRNAs (real-time RT-PCR): > 90%
